Assay: Phase I dose escalation study: safety, tolerability, DLT and MTD
Format: in vivo

Cc1cccc2c1NC(=O)[C@@H](NC(=O)[C@H](CCC(F)(F)F)[C@H](CCC(F)(F)F)C(N)=O)N=C2c1cccc(F)c1 [BMS-986115]
5 (14) n (%): Dehydration (drug related AE, all grades) (All patients (N = 36)) | Dry skin (drug related AE, all grades) (All patients (N = 36)) | Dysgeusia (drug related AE, all grades) (All patients (N = 36)) | Dysphonia (drug related AE, all grades) (All patients (N = 36)) | Rash maculopapular (drug related AE, all grades) (All patients (N = 36))
1 (50) n (%): Hypophosphataemia (drug related AE, Grade 3 and 4) (Arm A QD 0.3 mg (N = 2)) | Pruritus (drug related AE, all grades) (Arm A QD 0.3 mg (N = 2)) | Rash (drug related AE, all grades) (Arm A QD 0.3 mg (N = 2)) | Sinusitis (drug related AE, all grades) (Arm A QD 0.3 mg (N = 2)) | Diarrhoea (drug related AE, all grades) (Arm A QD 0.6 mg (N = 2)) | Hypophosphataemia (drug related AE, all grades) (Arm A QD 0.6 mg (N = 2)) | Nausea (drug related AE, all grades) (Arm A QD 0.6 mg (N = 2)) | Rash (drug related AE, all grades) (Arm A QD 0.6 mg (N = 2))
22 (61) n (%): Nausea (drug related AE, all grades) (All patients (N = 36))
2 (100) n (%): Hypophosphataemia (drug related AE, all grades) (Arm A QD 0.3 mg (N = 2))
1 (3) n (%): Abdominal pain (drug related AE, Grade 3 and 4) (All patients (N = 36)) | Colitis (drug related AE, Grade 3 and 4) (All patients (N = 36)) | Cough (drug related AE, Grade 3 and 4) (All patients (N = 36)) | Decreased Appetite (drug related AE, Grade 3 and 4) (All patients (N = 36)) | Dehydration (drug related AE, Grade 3 and 4) (All patients (N = 36)) | Fatigue (drug related AE, Grade 3 and 4) (All patients (N = 36)) | Hypocalcaemia (drug related AE, Grade 3 and 4) (All patients (N = 36)) | Ileus (drug related AE, Grade 3 and 4) (All patients (N = 36)) | Leucocytosis (drug related AE, Grade 3 and 4) (All patients (N = 36)) | Pruritus (drug related AE, Grade 3 and 4) (All patients (N = 36)) | Pulmonary embolism (drug related AE, Grade 3 and 4) (All patients (N = 36)) | Urticaria (drug related AE, Grade 3 and 4) (All patients (N = 36)) | Vomiting (drug related AE, Grade 3 and 4) (All patients (N = 36))
3 (8) n (%): Abdominal pain (drug related AE, all grades) (All patients (N = 36)) | Dry mouth (drug related AE, all grades) (All patients (N = 36)) | Dyspepsia (drug related AE, all grades) (All patients (N = 36)) | Flatulence (drug related AE, all grades) (All patients (N = 36)) | Increased upper airway secretion (drug related AE, all grades) (All patients (N = 36)) | Mouth ulceration (drug related AE, all grades) (All patients (N = 36))
6 subjects: Subjects with treatment-related SAEs (Arm A QD)
0 n (%): Abdominal distension (drug related AE, all grades) (Arm A QD 0.3 mg (N = 2)) | Abdominal pain (drug related AE, Grade 3 and 4) (Arm A QD 0.3 mg (N = 2)) | Abdominal pain (drug related AE, all grades) (Arm A QD 0.3 mg (N = 2)) | Blood creatinine increased (drug related AE, all grades) (Arm A QD 0.3 mg (N = 2)) | Colitis (drug related AE, Grade 3 and 4) (Arm A QD 0.3 mg (N = 2)) | Cough (drug related AE, Grade 3 and 4) (Arm A QD 0.3 mg (N = 2)) | Cough (drug related AE, all grades) (Arm A QD 0.3 mg (N = 2)) | Decreased Appetite (drug related AE, Grade 3 and 4) (Arm A QD 0.3 mg (N = 2)) | Decreased Appetite (drug related AE, all grades) (Arm A QD 0.3 mg (N = 2)) | Dehydration (drug related AE, Grade 3 and 4) (Arm A QD 0.3 mg (N = 2)) | Dehydration (drug related AE, all grades) (Arm A QD 0.3 mg (N = 2)) | Dermatitis acneiform (drug related AE, all grades) (Arm A QD 0.3 mg (N = 2)) | Diarrhoea (drug related AE, Grade 3 and 4) (Arm A QD 0.3 mg (N = 2)) | Diarrhoea (drug related AE, all grades) (Arm A QD 0.3 mg (N = 2)) | Dry mouth (drug related AE, all grades) (Arm A QD 0.3 mg (N = 2)) | Dry skin (drug related AE, all grades) (Arm A QD 0.3 mg (N = 2)) | Dysgeusia (drug related AE, all grades) (Arm A QD 0.3 mg (N = 2)) | Dyspepsia (drug related AE, all grades) (Arm A QD 0.3 mg (N = 2)) | Dysphonia (drug related AE, all grades) (Arm A QD 0.3 mg (N = 2)) | Fatigue (drug related AE, Grade 3 and 4) (Arm A QD 0.3 mg (N = 2)) | Fatigue (drug related AE, all grades) (Arm A QD 0.3 mg (N = 2)) | Flatulence (drug related AE, all grades) (Arm A QD 0.3 mg (N = 2)) | Hypocalcaemia (drug related AE, Grade 3 and 4) (Arm A QD 0.3 mg (N = 2)) | Hypocalcaemia (drug related AE, all grades) (Arm A QD 0.3 mg (N = 2)) | Hypokalaemia (drug related AE, Grade 3 and 4) (Arm A QD 0.3 mg (N = 2)) | Hypokalaemia (drug related AE, all grades) (Arm A QD 0.3 mg (N = 2)) | Hyponatraemia (drug related AE, Grade 3 and 4) (Arm A QD 0.3 mg (N = 2)) | Hyponatraemia (drug related AE, all grades) (Arm A QD 0.3 mg (N = 2)) | Ileus (drug related AE, Grade 3 and 4) (Arm A QD 0.3 mg (N = 2)) | Increased upper airway secretion (drug related AE, all grades) (Arm A QD 0.3 mg (N = 2)) | Laryngeal pain (drug related AE, all grades) (Arm A QD 0.3 mg (N = 2)) | Leucocytosis (drug related AE, Grade 3 and 4) (Arm A QD 0.3 mg (N = 2)) | Mouth ulceration (drug related AE, all grades) (Arm A QD 0.3 mg (N = 2)) | Nausea (drug related AE, Grade 3 and 4) (Arm A QD 0.3 mg (N = 2)) | Nausea (drug related AE, all grades) (Arm A QD 0.3 mg (N = 2)) | Pruritus (drug related AE, Grade 3 and 4) (Arm A QD 0.3 mg (N = 2)) | Pulmonary embolism (drug related AE, Grade 3 and 4) (Arm A QD 0.3 mg (N = 2)) | Rash maculopapular (drug related AE, all grades) (Arm A QD 0.3 mg (N = 2)) | Urticaria (drug related AE, Grade 3 and 4) (Arm A QD 0.3 mg (N = 2)) | Vision blurred (drug related AE, all grades) (Arm A QD 0.3 mg (N = 2)) | Vomiting (drug related AE, Grade 3 and 4) (Arm A QD 0.3 mg (N = 2)) | Vomiting (drug related AE, all grades) (Arm A QD 0.3 mg (N = 2)) | Weight decreased (drug related AE, all grades) (Arm A QD 0.3 mg (N = 2)) | Abdominal distension (drug related AE, all grades) (Arm A QD 0.6 mg (N = 2)) | Abdominal pain (drug related AE, Grade 3 and 4) (Arm A QD 0.6 mg (N = 2)) | Abdominal pain (drug related AE, all grades) (Arm A QD 0.6 mg (N = 2)) | Blood creatinine increased (drug related AE, all grades) (Arm A QD 0.6 mg (N = 2)) | Colitis (drug related AE, Grade 3 and 4) (Arm A QD 0.6 mg (N = 2)) | Cough (drug related AE, Grade 3 and 4) (Arm A QD 0.6 mg (N = 2)) | Cough (drug related AE, all grades) (Arm A QD 0.6 mg (N = 2)) | Decreased Appetite (drug related AE, Grade 3 and 4) (Arm A QD 0.6 mg (N = 2)) | Decreased Appetite (drug related AE, all grades) (Arm A QD 0.6 mg (N = 2)) | Dehydration (drug related AE, Grade 3 and 4) (Arm A QD 0.6 mg (N = 2)) | Dehydration (drug related AE, all grades) (Arm A QD 0.6 mg (N = 2)) | Dermatitis acneiform (drug related AE, all grades) (Arm A QD 0.6 mg (N = 2)) | Diarrhoea (drug related AE, Grade 3 and 4) (Arm A QD 0.6 mg (N = 2)) | Dry mouth (drug related AE, all grades) (Arm A QD 0.6 mg (N = 2)) | Dry skin (drug related AE, all grades) (Arm A QD 0.6 mg (N = 2)) | Dysgeusia (drug related AE, all grades) (Arm A QD 0.6 mg (N = 2)) | Dyspepsia (drug related AE, all grades) (Arm A QD 0.6 mg (N = 2)) | Dysphonia (drug related AE, all grades) (Arm A QD 0.6 mg (N = 2)) | Fatigue (drug related AE, Grade 3 and 4) (Arm A QD 0.6 mg (N = 2)) | Fatigue (drug related AE, all grades) (Arm A QD 0.6 mg (N = 2)) | Flatulence (drug related AE, all grades) (Arm A QD 0.6 mg (N = 2)) | Hypocalcaemia (drug related AE, Grade 3 and 4) (Arm A QD 0.6 mg (N = 2)) | Hypocalcaemia (drug related AE, all grades) (Arm A QD 0.6 mg (N = 2)) | Hypokalaemia (drug related AE, Grade 3 and 4) (Arm A QD 0.6 mg (N = 2)) | Hypokalaemia (drug related AE, all grades) (Arm A QD 0.6 mg (N = 2)) | Hyponatraemia (drug related AE, Grade 3 and 4) (Arm A QD 0.6 mg (N = 2)) | Hyponatraemia (drug related AE, all grades) (Arm A QD 0.6 mg (N = 2)) | Hypophosphataemia (drug related AE, Grade 3 and 4) (Arm A QD 0.6 mg (N = 2)) | Ileus (drug related AE, Grade 3 and 4) (Arm A QD 0.6 mg (N = 2)) | Increased upper airway secretion (drug related AE, all grades) (Arm A QD 0.6 mg (N = 2)) | Laryngeal pain (drug related AE, all grades) (Arm A QD 0.6 mg (N = 2)) | Leucocytosis (drug related AE, Grade 3 and 4) (Arm A QD 0.6 mg (N = 2)) | Mouth ulceration (drug related AE, all grades) (Arm A QD 0.6 mg (N = 2)) | Nausea (drug related AE, Grade 3 and 4) (Arm A QD 0.6 mg (N = 2)) | Pruritus (drug related AE, Grade 3 and 4) (Arm A QD 0.6 mg (N = 2)) | Pruritus (drug related AE, all grades) (Arm A QD 0.6 mg (N = 2)) | Pulmonary embolism (drug related AE, Grade 3 and 4) (Arm A QD 0.6 mg (N = 2))
2 (6) n (%): Abdominal distension (drug related AE, all grades) (All patients (N = 36)) | Blood creatinine increased (drug related AE, all grades) (All patients (N = 36)) | Hypocalcaemia (drug related AE, all grades) (All patients (N = 36)) | Hyponatraemia (drug related AE, Grade 3 and 4) (All patients (N = 36)) | Hyponatraemia (drug related AE, all grades) (All patients (N = 36)) | Laryngeal pain (drug related AE, all grades) (All patients (N = 36)) | Sinusitis (drug related AE, all grades) (All patients (N = 36)) | Vision blurred (drug related AE, all grades) (All patients (N = 36)) | Weight decreased (drug related AE, all grades) (All patients (N = 36))
11 (31) n (%): Rash (drug related AE, all grades) (All patients (N = 36))
13 (36) n (%): Decreased Appetite (drug related AE, all grades) (All patients (N = 36))
16 (44) n (%): Fatigue (drug related AE, all grades) (All patients (N = 36)) | Vomiting (drug related AE, all grades) (All patients (N = 36))
26 (72) n (%): Diarrhoea (drug related AE, all grades) (All patients (N = 36))
29%: Gr 3/4 diarrhoea related to the study treatment (1.5 mg QD, 2 of 7 patients)
10 (28) n (%): Hypokalaemia (drug related AE, all grades) (All patients (N = 36))
7 (19) n (%): Diarrhoea (drug related AE, Grade 3 and 4) (All patients (N = 36))
≤ 24 h: Time for Gr 3/4 diarrhoea to resolve to Gr 1 (1.5 mg QD, with appropriate medical management)
14 (39) n (%): Hypophosphataemia (drug related AE, Grade 3 and 4) (All patients (N = 36))
9 (25) n (%): Pruritus (drug related AE, all grades) (All patients (N = 36))
4 (11) n (%): Cough (drug related AE, all grades) (All patients (N = 36)) | Dermatitis acneiform (drug related AE, all grades) (All patients (N = 36)) | Hypokalaemia (drug related AE, Grade 3 and 4) (All patients (N = 36)) | Nausea (drug related AE, Grade 3 and 4) (All patients (N = 36))
0: No. of patients with DLTs (Arm A QD 0.3 mg, 2 DLT evaluable patients)
23 (64) n (%): Hypophosphataemia (drug related AE, all grades) (All patients (N = 36))
